Results on 1 compound are retold here after patent publication US10653705B2, “Applications for estrone in preparing anti-ovarian cancer and/or breast cancer products” (SHANGHAI JIAO TONG UNIVERSITY, priority 2015, dated 2020).

Where only a bound is given, the exact number is not on record here.

In general, IC50 refers to the midpoint of a concentration-inhibition curve. A high value points to weaker potency in that assay. Broadly, the EC50 is the concentration that produces a half-maximal response. A high value points to a need for much substance.

Holding throughout (type): cell-based
For test [1], the system named is NCI-H460 large-cell lung cancer cells. Kind of test: CellTiter-Glo luminescent cell viability assay, NCI-H460 large-cell lung cancer cells. The conditions noted are these: Homo sapiens, 72 hours. On the technique in general: In ATP-based viability assays light output follows the ATP content of the culture.
Test [2] concerns HCC1395 breast cancer cells. Kind of test: CellTiter-Glo luminescent cell viability assay, HCC1395 breast cancer cells. The conditions noted are these: Homo sapiens, 72 hours. The method, then: In example 1, CELLTITER-GLO was used to test estrone against ovarian cancer and/or breast cancer m) A cell counter was used to count the number of suspended cells and adjust the cell suspension to an appropriate density in the plate to carry out cell plating experiments. 2. The drug analyte estrone was prepared and administered (200× final concentration): a) DMSO was used to dilute the analyte estrone to 20 mM for use. b) 79 μL of the 20 mM analyte prepared in step a) was added to the first well in the first row of the dilution plate, and then 54 μL of DMSO solution was added to the second through ninth wells of the first row. […] The final concentrations (μM) of the analyte drug in wells 2-10 in FIG. 1 are, in order: 100, 31.64557, 10.01442, 3.16912, 1.002886, 0.317369, 0.100433, 0.031783, 0.010058; B. CELLTITER-GLO Luminescent Cell Viability Assay System c) 100 μl of CellTiter-Glo reagent (prepared as described in 1 above) was added to all drug screening plates and mixed evenly. d) It was thoroughly oscillated in a 96-well microplate oscillator for 2 minutes to allow the cells to undergo full lysis. e) It was stored away from light at room temperature for 15 minutes before carrying out luminescent signal detection to ensure signal stability. f) An EnSpire multi-function plate reader was used at 570 nm to read the luminescent signals. g) Data was processed and analyzed. […]

In test [3] the test system is SKOV-3 ovarian cancer cells. Kind of test: CellTiter-Glo luminescent cell viability assay, SKOV-3 ovarian cancer cells. The text has this: In example 1, CELLTITER-GLO was used to test estrone against ovarian cancer and/or breast cancer m) A cell counter was used to count the number of suspended cells and adjust the cell suspension to an appropriate density in the plate to carry out cell plating experiments. SKOV-3 cells were handled as described above, and a SKOV-3 96-well cell culture plate was obtained. The complete medium for SKOV-3 cells was McCOY'S 5A (a live product), Cat #16600082, with a cells/well density of 12000. 2. The drug analyte estrone was prepared and administered (200× final concentration): a) DMSO was used to dilute the analyte estrone to 20 mM for use. b) 79 μL of the 20 mM analyte prepared in step a) was added to the first well in the first row of the dilution plate, and then 54 μL of DMSO solution was added to the second through ninth wells of the first row. […] The final concentrations (μM) of the analyte drug in wells 2-10 in FIG. 1 are, in order: 100, 31.64557, 10.01442, 3.16912, 1.002886, 0.317369, 0.100433, 0.031783, 0.010058; B. CELLTITER-GLO Luminescent Cell Viability Assay System a) Before testing, the SKOV-3 96-well drug screening plate described in 3 above was stabilized to room temperature for 20-30 minutes. c) 100 μl of CellTiter-Glo reagent (prepared as described in 1 above) was added to all drug screening plates and mixed evenly. d) It was thoroughly oscillated in a 96-well microplate oscillator for 2 minutes to allow the cells to undergo full lysis. e) It was stored away from light at room temperature for 15 minutes before carrying out luminescent signal detection to ensure signal stability. f) An EnSpire multi-function plate reader was used at 570 nm to read the luminescent signals. g) Data was processed and analyzed.

For test [4], the system named is NCI-H1437 human lung cancer cells. Kind of test: CellTiter-Glo luminescent cell viability assay, NCI-H1437 human lung cancer cells. The conditions noted are these: 72 hours.

With `C[C@]12CC[C@@H]3c4ccc(O)cc4CC[C@H]3[C@@H]1CCC2=O` [Estrone], the concentration for half-maximal inhibition (IC50) in test [1] is at least 100 µM; in test [2], 68 µM; in test [3] (Homo sapiens, SK-OV-3, SKOV-3 cells, 72 hours, CellTiter-Glo), 21.5 µM; in test [4], at least 100 µM. The 50% effective concentration (EC50) in test [2] (FIG. 3) came out at 74000 µM; in test [3] (Homo sapiens, SK-OV-3, SKOV-3 cells, 72 hours, CellTiter-Glo, FIG. 2) it was 16.4 µM. Also, the “effect on the proliferation of ovarian cancer cells” value in test [3] (compared with the lung cancer cell lines of Table 1) was “specific inhibitory effect”.
